Laboratory results published in patent publication US20160139154A1, “METHODS FOR DETERMINING TOTAL BODY SKELETAL MUSCLE MASS” (THE REGENTS OF THE UNIVERSITY OF CALIFORNIA, priority 2013, published 2016).

How the values were obtained:
[1] = Urinary excretion and renal clearance of the D3-creatine tracer dose; type: in vivo, human
Method: (§1) In the older subjects, sampling was extended to 72 hr (24, 36, 48, and 72 hr). Urine was collected continuously beginning at baseline, day −1, through day 5 of the study in timed intervals. On Day −1, subjects entered the clinic prior to noon, and timed urine collections began at 12:00 PM with 12:00 PM being time 0 (0-4, 4-8, 8-12, 12-20 h), and completed at 8:00 AM the next day, Day 1.
(§2) Total body creatine pool size and muscle mass were calculated from D3-creatinine enrichment in urine. Total body muscle mass was measured by MRI (serial cross sections), and total lean body mass (LBM) and appendicular lean mass (ALM) were measured by DXA during the subjects' stay on the inpatient unit.
The data were analyzed in SAS v9.2 (SAS Institute, Cary, N.C.) and graphs were produced in either SAS or TSCG. […] There were no adjustments for multiplicity.

[2] = in vivo, po
Method: Enrichment of D3-creatinine in urine to total creatinine in urine was determined for each urine collection interval. Achievement of steady-state enrichment was determined by a combination of visual inspection and linear regression. […] Linear regression of the enrichment ratio on time (midpoint of the urine collection interval) was performed for each subject separately. […] The earliest time point included in the final regression was defined as the time to achievement of steady-state.

[3] = Pharmacokinetics of D3-creatine in plasma after a single oral tracer dose; type: in vivo, human; details: healthy subjects
Method: Subjects were housed on the in-patient unit for the full 5 day study. Subjects were admitted on Day-1, for baseline evaluation and acclimation.
as §1, §2

Row | Compound | renal clearance ([1]; human, in vivo) | renal clearance as % of the dose ([1]; human, in vivo) | time to achievement of steady-state enrichment in urine [2] | cleared from plasma ([3]; single oral tracer dose 30-100 mg, within 24 h) | cleared from plasma by 72 h ([3]; single oral tracer dose, by 72 h) | % of D3-creatine recovered in urine over 120 h ([1]; range across subjects, single oral dose 30-100 mg)
1 | D3-creatinine | 0.26 to 56 mL/min | 0.1% to 34 | 30.7 h | – | – | –
2 | [2H]C([2H])([2H])N(CC(=O)O)C(=N)N [D3-creatine] | – | – | – | ~80% | essentially cleared | 0.1 to 34%
